# In US6323205A (priority 2000, dated 2001):
# Experiments:
# [1] = Phase II clinical trial, tumor responses; assay type: in vivo, human patients; conditions: 150 mg/m^2 biweekly
# Text: To date, the first six patients have received at least one cycle of treatments. […] Specifically, three patients enrolled in the study had measurable disease.
# LX-1 lung tumor = assay: Antitumor activity against LX-1 lung tumor in nude mice (Example 10, combinations); assay type: in vivo, human tumor xenograft in nude mice; conditions: for Avg Tumor Diameter: 4 treatments, mg/kg: EDX 40, PDX 60, TXL 25, TXT 20, PDX+TXL 45+18, PDX+TXT 45+15, 'then' = taxane 24 h later; for Change in Tumor Volume: from starting point of 83 mg, 3 to 4 days after treatment end
# [2] = test system: human MX-1 mammary carcinoma; assay: Antitumor activity against xenografts of human MX-1 mammary carcinoma in nude mice; conditions: same doses, no measurable tumor at day 14, mice/mice tested
# human LX-1 lung cancer = assay: Antitumor activity against xenografts of human LX-1 lung cancer in nude mice (Example 3); assay type: in vivo, human tumor xenograft in nude mice; conditions: Example 2 protocol, tumor free three weeks after therapy
# TSU-PR1 (human prostate) = assay: Antitumor activity in TSU-PR1 tumor model in mice (Example 11)
# Text: (§1) The tumor volume at the time of initial treatment was 14-19 mm^3.
# LX-1 (human lung) = assay: Antitumor activity in LX-1 tumor model in mice (Example 11)
# Text: as §1
# PC-3 (human prostate) = assay: Antitumor activity in PC-3 tumor model in mice (Example 11); conditions: PC3, dose PDX 60, TXL 25, PDX + TXL 45 + 16
# Text: as §1
# [3] = dose PDX 60, TXL 25, PDX + TXL 45 + 16
# [4] = dose PDX 60, TXL 25, PDX + TXL 45 + 16, initial volume 14-19 mm^3
smiles,measurement,setting,value
C#CCC(Cc1cnc2nc(N)nc(N)c2n1)c1ccc(C(=O)N[C@@H](CCC(=O)O)C(=O)O)cc1 (stereo partly drawn) [10-propargyl-10-deazaaminopterin],response of fourth patient (evaluable disease),[1],objective improvement in disease parameters
same,patients with major responses,[1]; of first six patients,four have demonstrated major responses
same,reduction in tumor diameter (lung scans),[1]; three patients with measurable disease,at least 50%
"CCC(Cc1cnc2nc(N)nc(N)c2n1)c1ccc(C(=O)N[C@@H](CCC(=O)O)C(=O)O)cc1 (stereo partly drawn) [EDX, edatrexate]",Avg Tumor Diameter,LX-1 lung tumor,6.6 ± 2 mm
same,Change in Tumor Volume,LX-1 lung tumor; same doses,+102 mg
same,Tumor Free Mice at 3-4 days,"LX-1 lung tumor; same doses, mice/mice treated",0/10
"CN(Cc1cnc2nc(N)nc(N)c2n1)c1ccc(C(=O)N[C@@H](CCC(=O)O)C(=O)O)cc1 [MTX, methotrexate, reference compound]",Complete Regressions,[2],no regressions
same,Cures,human LX-1 lung cancer,0/10
"CC(=O)O[C@H]1C(=O)[C@@]2(C)[C@H]([C@H](OC(=O)c3ccccc3)[C@]3(O)C[C@H](OC(=O)[C@H](O)[C@@H](NC(=O)c4ccccc4)c4ccccc4)C(C)=C1C3(C)C)[C@]1(OC(C)=O)CO[C@@H]1C[C@@H]2O [TXL, paclitaxel, reference compound]",Avg Tumor Diameter,TSU-PR1 (human prostate); [3],3.2 ± 0.3 mm
same,Tumor Free Mice,TSU-PR1 (human prostate); [3],0/6
same,Change in Tumor Volume,TSU-PR1 (human prostate); [4],0
same,Avg Tumor Diameter,LX-1 (human lung); [3],11.6 ± 1 mm
same,Tumor Free Mice,LX-1 (human lung); [3],0/6
same,Change in Tumor Volume,LX-1 (human lung); [4],+803
same,Avg Tumor Diameter,PC-3 (human prostate),4.3 ± 0.3 mm
same,Tumor Free Mice,PC-3 (human prostate),0/6
same,Change in Tumor Volume,PC-3 (human prostate); initial volume 14-19 mm^3,+26
same,Avg Tumor Diameter,LX-1 lung tumor,6.2 ± 2 mm
same,Change in Tumor Volume,LX-1 lung tumor; same doses,+42 mg
same,Tumor Free Mice at 3-4 days,"LX-1 lung tumor; same doses, mice/mice treated",0/10
"CC(=O)O[C@@]12CO[C@@H]1C[C@H](O)[C@@]1(C)C(=O)[C@H](O)C3=C(C)[C@@H](OC(=O)[C@H](O)[C@@H](NC(=O)OC(C)(C)C)c4ccccc4)C[C@@](O)([C@@H](OC(=O)c4ccccc4)[C@H]21)C3(C)C [TXT, docetaxel]",Avg Tumor Diameter,LX-1 lung tumor,6.0 ± 2 mm
same,Change in Tumor Volume,LX-1 lung tumor; same doses,+34 mg
same,Tumor Free Mice at 3-4 days,"LX-1 lung tumor; same doses, mice/mice treated",1/10
same,Tumor Free Mice at 28 days,"LX-1 lung tumor; same doses, mice/mice treated",0/10
